Test results taken from patent US20230330234A1, “HYPERBRANCHED POLYESTER POLYOL DERIVATIVE AS DRUG SOLUBILIZER” (FREIE UNIVERSITÄT BERLIN, priority 2020, published 2023).
In brackets after ≈: the same amount, converted by molar mass. Read-outs that look alike come from different tables or passages of the source.

Experiments:
physchem = settings: aqueous with cosolvent or surfactant or cyclodextrin, thermodynamic from solid

C#Cc1cccc(Nc2ncnc3cc(OCCOC)c(OCCOC)cc23)c1 [Erlotinib] showed a solubility at 18 h (physchem) of over 300 µg/mL and a solubility (Solubility in water; Solubility in water) of 10 µg/mL (≈ 25.4 µM).
With Cn1nccc1Nc1nccc(-c2ccn([C@H](CO)c3ccc(Cl)c(F)c3)c(=O)c2)n1 [Ravoxertinib] the solubility at 18 h (physchem) was over 300 µg/mL and the solubility (Solubility in water; Solubility in water) was 4 µg/mL (≈ 9.07 µM).
With Nc1ccccc1NC(=O)c1ccc(CNc2nccc(-c3cccnc3)n2)cc1 [Mocetinostat] the solubility at 18 h (physchem) was over 300 µg/mL and the solubility (Solubility in water; Solubility in water) was 8 µg/mL (≈ 20.2 µM).
With Nc1ncccc1-c1nc2ccc(-c3ccccc3)nc2n1-c1ccc(C2(N)CCC2)cc1 [Miransertib] the solubility at 18 h (physchem) was over 300 µg/mL and the solubility (Solubility in water) was 60 µg/mL (≈ 139 µM).
In the case of CNC(=O)c1cc(Oc2ccc(NC(=O)Nc3ccc(Cl)c(C(F)(F)F)c3)c(F)c2)ccn1 [Regorafenib], the solubility at 18 h (physchem) was over 300 µg/mL and the Solubility in water (Solubility in water) was 1 µg/mL (≈ 2.07 µM).
Work on COC(=O)N[C@@H](C)CNc1nccc(-c2cn(C(C)C)nc2-c2cc(Cl)cc(NS(C)(=O)=O)c2F)n1 [Encorafenib] yielded a solubility at 18 h (physchem) of over 300 µg/mL and a solubility (Solubility in water; Solubility in water) of 10 µg/mL (≈ 18.5 µM).
In the case of COc1ccc([C@@H](O)c2cc(-c3ncnc4cc(N5CCOCC5)ccc34)c(F)cc2Cl)nn1 [Nedisertib], the solubility at 18 h (physchem) was over 300 µg/mL and the solubility (Solubility in water; Solubility in water) was 80 µg/mL (≈ 166 µM).
With CCN(CCCOc1ccc2c(Nc3cc(CC(=O)Nc4cccc(F)c4)n[nH]3)ncnc2c1)CCOP(=O)(O)O [Barasertib] the solubility at 18 h (physchem) was over 300 µg/mL and the solubility (Solubility in water; Solubility in water) was 50 µg/mL (≈ 85.1 µM).
In the case of CC(C)(C)C[C@@H]1N[C@@H](C(=O)N[C@H]2CC[C@H](O)CC2)[C@H](c2cccc(Cl)c2F)[C@]12C(=O)Nc1cc(Cl)ccc12 [SAR405838], the solubility at 18 h (physchem) was over 300 µg/mL and the solubility (Solubility in water; Solubility in water) was 2 µg/mL (≈ 3.56 µM).
CN1CCN(c2ccc(C(=O)Nc3n[nH]c4ccc(Cc5cc(F)cc(F)c5)cc34)c(NC3CCOCC3)c2)CC1 [Entrectinib] gave a solubility at 18 h (physchem) of over 300 µg/mL and a solubility (Solubility in water; Solubility in water) of 9 µg/mL (≈ 16.1 µM).
Work on COc1cc(Nc2c(C#N)cnc3cc(OCCCN4CCN(C)CC4)c(OC)cc23)c(Cl)cc1Cl [Bosutinib] yielded a solubility at 18 h (physchem) of over 300 µg/mL and a solubility (Solubility in water; Solubility in water) of 10 µg/mL (≈ 18.9 µM).
Work on Cc1cn(-c2cc(NC(=O)c3ccc(C)c(Nc4nccc(-c5cccnc5)n4)c3)cc(C(F)(F)F)c2)cn1 [Nilotinib] yielded a solubility at 18 h (physchem) of over 300 µg/mL and a solubility (Solubility in water; Solubility in water) of 2 µg/mL (≈ 3.78 µM).
For CC(C)Cc1ccc(C(C)C(=O)O)cc1 (stereo not drawn) [Ibuprofen], the solubility at 18 h (physchem) was under 100 µg/mL.
In the case of N#CC[C@H](C1CCCC1)n1cc(-c2ncnc3[nH]ccc23)cn1 [Ruxolitinib], the solubility at 18 h (physchem) was over 300 µg/mL.
C=CC(=O)Nc1cc(Nc2nccc(-c3cn(C)c4ccccc34)n2)c(OC)cc1N(C)CCN(C)C [Osimertinib] showed a solubility at 18 h (physchem) of over 300 µg/mL and a solubility (Solubility in water; Solubility in water) of 20 µg/mL (≈ 40 µM).
Compound CC(C)NC[C@@H](C(=O)N1CCN(c2ncnc3c2[C@H](C)C[C@H]3O)CC1)c1ccc(Cl)cc1 [Ipatasertib] has a solubility at 18 h (physchem) of over 300 µg/mL and a solubility (Solubility in water; Solubility in water) of 50 µg/mL (≈ 109 µM).
Cc1ccc(C(=O)Nc2ccc(CN3CCN(C)CC3)c(C(F)(F)F)c2)cc1C#Cc1cnc2cccnn12 [Ponatinib] gave a solubility at 18 h (physchem) of over 300 µg/mL and a solubility (Solubility in water; Solubility in water) of 2 µg/mL (≈ 3.76 µM).
For COc1ncc(-c2nc3c(n2C(C)C)[C@H](c2ccc(Cl)cc2)N(c2cc(Cl)cn(C)c2=O)C3=O)c(OC)n1 [Siremadlin], the solubility at 18 h (physchem) was over 300 µg/mL and the solubility (Solubility in water; Solubility in water) was 1 µg/mL (≈ 1.8 µM).
For Cn1ncc(Cl)c1-c1cc(C(=O)N[C@H](CN)Cc2ccc(F)c(F)c2)oc1Cl [Uprosertib], the solubility at 18 h (physchem) was over 300 µg/mL and the solubility (Solubility in water; Solubility in water) was 30 µg/mL (≈ 69.9 µM).
For Cn1cnc2c(F)c(Nc3ccc(Br)cc3Cl)c(C(=O)NOCCO)cc21 [Selumetinib], the solubility at 18 h (physchem) was over 300 µg/mL and the solubility (Solubility in water; Solubility in water) was 40 µg/mL (≈ 87.4 µM).
CCCS(=O)(=O)Nc1ccc(F)c(C(=O)c2c[nH]c3ncc(-c4ccc(Cl)cc4)cc23)c1F [Vemurafenib] gave a solubility at 18 h (physchem) of over 300 µg/mL and a solubility (Solubility in water; Solubility in water) of 0.3 µg/mL (≈ 0.612 µM).
Work on CC(C)C[C@H](NC(=O)[C@H](Cc1ccccc1)NC(=O)c1cnccn1)B(O)O [Bortezomib] yielded a solubility at 18 h (physchem) of over 300 µg/mL and a solubility (Solubility in water; Solubility in water) of 50 µg/mL (≈ 130 µM).
In the case of Cc1nc(Nc2ncc(C(=O)Nc3c(C)cccc3Cl)s2)cc(N2CCN(CCO)CC2)n1 [Dasatinib], the solubility at 18 h (physchem) was over 300 µg/mL.
COc1ccc(-c2nc(N3CCOCC3)c3sc(CN(C)c4ncc(C(=O)NO)cn4)cc3n2)cn1 [Fimepinostat] showed a solubility at 18 h (physchem) of over 300 µg/mL and a solubility (Solubility in water; Solubility in water) of 2 µg/mL (≈ 3.93 µM).
For Nc1ccccc1NC(=O)c1ccc(CNC(=O)OCc2cccnc2)cc1 [Entinostat], the solubility at 18 h (physchem) was over 300 µg/mL and the solubility (Solubility in water; Solubility in water) was 5 µg/mL (≈ 13.3 µM).
In the case of C[C@H]1Oc2cc(cnc2N)-c2c(nn(C)c2C#N)CN(C)C(=O)c2ccc(F)cc21 [Lorlatinib], the solubility at 18 h (physchem) was over 300 µg/mL and the solubility (Solubility in water; Solubility in water) was 100 µg/mL (≈ 246 µM).
With CO[C@@H](C)Cn1c(=O)n(C)c2cnc3ccc(-c4cncc(C(C)(C)O)c4)cc3c21 [LY3023414] the solubility at 18 h (physchem) was over 300 µg/mL and the solubility (Solubility in water; Solubility in water) was 80 µg/mL (≈ 197 µM).
